{"source": "paper PMC9305975", "about": "(Journal of the American Chemical Society, 2022)", "molecular_target": "VcRibB (RibB, 3,4-dihydroxy-2-butanone 4-phosphate synthase) (Vibrio cholerae, UniProt Q9KKP2)", "sequence (Q9KKP2 whole entry)": "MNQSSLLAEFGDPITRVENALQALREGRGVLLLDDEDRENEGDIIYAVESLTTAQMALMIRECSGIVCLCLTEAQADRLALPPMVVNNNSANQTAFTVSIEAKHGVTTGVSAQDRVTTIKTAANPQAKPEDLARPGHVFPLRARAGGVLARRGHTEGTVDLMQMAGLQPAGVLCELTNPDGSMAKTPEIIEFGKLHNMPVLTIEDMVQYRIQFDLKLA", "settings": "two Mn2+ in the active site; non-substrate analogue"}
{"smiles": "O=C(CO)[C@H](O)[C@@H](O)COP(=O)(O)O", "note": "[L-xylulose 5-phosphate]", "values": [{"measurement": "X-ray crystal structure; EPR", "value": "L-xylulose 5-phosphate (L-Xy5P), showing two manganese ions and a significantly different, more twisted binding"}]}
